Laboratory results taken from patent US4283394A, “Cytotoxic nucleoside-corticosteroid phosphodiesters” (priority 1979, dated 1981).

Columns and labels:
[1] = tested on: crude Crotalus adamenteus venom; assay type: in vitro ADME; details: 2.5 mg crude venom, 24 h, 37° C.
Description: Enzymatic cleavage of the phosphodiester bond of the conjugates was studied by incubating the conjugates (5 μmol) with various enzymes (1.5-3 mg) in appropriate buffer and with plasma (final volume 0.5 ml). An aliquot (200 μl) of the 24 h incubation mixtures was streaked on Whatman 3 MM paper (23×57 cm) with the authentic markers and the paper was developed in Solvent A. The bands were characterized and analyzed semi-quantitatively by UV estimation of the chromatographs. […] The conjugates also remained 60-85 percent intact during the incubation with baboon plasma at 37° C. for 24 h. From the results of these tests, conjugates of this type appear capable of serving as sustained release froms of the parent steroid and nucleoside components thereof.

[2] = tested on: intracerebrally implanted L-1210; test: Antitumor activity against intracerebrally (i.c.) implanted L-1210 in mice; assay type: in vivo; details: 50 mg/kg/day × 5 i.p.; for Survivors on day 35: groups of 8 mice; for Percent T/C: values as of 35th day
Description: Effects of the conjugate on i.c. implanted L-1210 in mice were also studied. A mouse (C3 D2 F1 /J, female, avg. wt. 20 g) was anesthesized with diethyl ether, the right parietal scalp was washed with 70 percent ethanol, a 27 G 1/2 needle with a guard placed on the outside of the barrel 1.5 mm from the top of the bevel, was inserted through the skull and 1×10^5 cells in 0.05 ml suspension were inoculated into the mouse. The conjugate in 0.9 percent NaCl (0.5 ml) was administered intraperitoneally once daily. Treatment began 24 h after implantation and continued for 5 consecutive days. Control animals received a 0.5 ml injection of saline. Testing was followed as described in the NCI protocol and evaluated by recording the survival time according to the formula appearing in protocol 11.

SMILES | hydrolysis by crude snake venom [1] | product ara-C [1] | product steroid [1] | Mean Survival Days [2] | body weight lost by day 11 [2] | weight gained over original weight (20 g) by day 20 [2] | Survivors on day 35 [2] | Percent T/C [2] | Percent T/C ([2]; listed as I) | Percent T/C ([2]; listed as II)
C[C@]12C=CC(=O)C=C1CC[C@@H]1[C@@H]2[C@@H](O)C[C@@]2(C)[C@H]1CC[C@]2(O)C(=O)CO[P+]([O-])(O)OC[C@H]1O[C@@H](n2ccc(N)nc2=O)[C@@H](O)[C@@H]1O (stereo partly drawn) [Pred-p-ara-C (I), 5'-(Prednisolone-21-phosphoryl)-1-β-D-arabinofuranosylcytosine] | hydrolyzed completely | 50% | 50% | 18.13 days | about 4 g | about 1 g | 1 | 201.4% | 201% | –
C[C@]12C=CC(=O)C=C1CC[C@@H]1[C@@H]2C(=O)C[C@@]2(C)[C@H]1CC[C@]2(O)C(=O)CO[P+]([O-])(O)OC[C@H]1O[C@@H](n2ccc(N)nc2=O)[C@@H](O)[C@@H]1O (stereo partly drawn) [Prednisone-p-ara-C (II), 5'-(Prednisone-21-phosphoryl)-1-β-D-arabinofuranosylcytosine] | hydrolyzed completely | 50% | 50% | 16.50 days | about 4 g | – | 1 | 183.3% | – | 183%
